Measured values: patent publication US20250360149A1, “GPCR INHIBITORS AND USES THEREOF” (GPCR Therapeutics, Inc., priority 2022, published 2025)
Values belong to the molecule of their own block, whether it stands above or below them.

Columns and labels:
[1] = target: CXCR4 and B2AR heteromers (Homo sapiens, UniProt P61073); details: MDA-MB-231 cells
[2] = system: C57BL/6J or Balb/c mice; details: 5 mg/kg SC, literature; cited from earlier work
[3] = system: C57BL/6J or Balb/c mice; assay: In vivo mobilization, CBC analysis of WBC (Example 11); details: for fold increase in WBCs compared to the vehicle: PB 2 h after GPC-100 30 mg/kg IV, 1 h after AMD3100 5 mg/kg SC, 12 h after G-CSF 0.1 mg/kg SC BID x5, propranolol 20 mg/kg IP QD x7
[4] = system: C57/B16 mice; assay: Complete blood count, beta blockers +/- GPC100, single agents and combinations (Examples 6-7); details: for effect of 7-day beta blocker on GPC100-induced mobilization: GPC100 30 mg/kg IV on day 7
[5] = system: LSK cells (Lineage−Sca−1+c−Kit+); assay: Flow cytometry of LSK cells in peripheral blood; details: mouse, in vivo
[6] = system: C57/BL6 mice; assay: Complete blood count in peripheral blood, Example 1 mobilization studies; details: 7-day treatment alone, 20 mg/kg IP

CXCR4 and B2AR heteromers, sequence (P61073 whole entry, one chain of several): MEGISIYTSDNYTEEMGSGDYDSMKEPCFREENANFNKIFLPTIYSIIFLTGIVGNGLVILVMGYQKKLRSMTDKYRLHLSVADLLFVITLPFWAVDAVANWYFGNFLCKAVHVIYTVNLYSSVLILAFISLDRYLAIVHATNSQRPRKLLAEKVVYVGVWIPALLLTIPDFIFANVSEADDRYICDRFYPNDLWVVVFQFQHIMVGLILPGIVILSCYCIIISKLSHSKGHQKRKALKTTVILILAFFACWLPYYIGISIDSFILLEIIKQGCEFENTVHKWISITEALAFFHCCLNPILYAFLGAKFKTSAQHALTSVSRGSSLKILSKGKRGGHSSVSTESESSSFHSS

Molecule: CC(C)(C)NCC(O)COc1cccc2c1CC(O)C(O)C2 (centres unmarked) [Nadolol]
effect of 7-day beta blocker on GPC100-induced mobilization [4]: enhanced

B1: G-CSF: Recombinant murine G-CSF, granulocyte-colony stimulating factor (protein, UniProt P09920 31-208, looked up)
Granulocyte …: VPLVTVSALPPSLPLPRSFLLKSLEQVRKIQASGSVLLEQLCATYKLCHPEELVLLGHSLGIPKASLSGCSSQALQQTQCLSQLHSGLCLYQGLLQALSGISPALAPTLDLLQLDVANFATTIWQQMENLGVAPTVQPTQSAMPAFTSAFQRRAGGVLAISYLQGFLETARLALHHLA
WBC mobilization, single agent comparison ([4]; single agent): Maximum mobilization | neutrophil mobilization, single agent comparison ([4]; single agent): more neutrophils than GPC100 or AMD3100 | fold increase in WBCs compared to the vehicle [3]: 4.5 fold

Second part, led by results:

Inhibition of Ca2+ flux enhanced by co-treatment with Pro (in words) [1]: not | changes in platelet count, hemoglobin or other red blood cell parameters ([3]; single administration): No changes
Molecule: c1cc(CN2CCCNCCNCCCNCC2)ccc1CN1CCCNCCNCCCNCC1 [AMD3100, Plerixafor]
time of peak mobilization [2]: 1 h

effect on total blood cell counts when administered alone ([4]; seven-day IP, propranolol 20 mg/kg, nadolol 5 mg/kg, ICI-118,551 5 mg/kg): did not affect
Molecule: Cc1ccc(OCC(O)C(C)NC(C)C)c2c1CCC2 (centres unmarked) [ICI-118,551]

Hemoglobin [6]: 13.15 ± 0.8 g/dL | Platelets [6]: 266 ± 52 10^3/uL | RBC [6]: 9.8 ± 0.36 10^6/uL
Molecule: CC(C)NCC(O)COc1cccc2ccccc12 (centres unmarked) [Propranolol]
effect of propranolol on LSK cell mobilization by GPC-100 [5]: enhanced | effect of 7-day beta blocker on GPC100-induced mobilization [4]: enhanced | effect on AMD3100-induced mobilization of lymphocytes ([4]; propranolol 20 mg/kg IP D1-D7, AMD3100 5 mg/kg SC D7): slightly increase | Lymphocytes [6]: 4.7 ± 1.3 10^3/uL | Monocytes [6]: 0.2 ± 0.09 10^3/uL | Neutrophils [6]: 0.42 ± 0.3 10^3/uL | WBC ([6]; vehicle IV on day 7): 5.4 ± 1.7 10^3/uL | effect of propranolol pretreatment on GPC-100 induced mobilization ([3]; 20 mg/kg IP over 7 days): significantly improved | fold increase in WBCs compared to the vehicle [3]: 4.1 fold
